Measurements from patent US6703483B1, “Compounds useful in pain management” (Cornell Research Foundation, Inc., priority 1999, dated 2004).

What was measured:
[1] = Respiratory depression studies (whole body plethysmography) after i.th. administration; conditions: rat; for decrease of minute ventilation: during 3 to 6 hours after administration
Experimental: Whole body plethysmography was performed as described in the literature (K. Tatsumi et al., J. Appl. Physiol. 71, 37-42 (1991)). An unrestrained rat was placed in a 3-liter whole-body plethysmograph chamber and breathed 100% humidified air supplied into and out of the chamber at a rate of 1000 ml/min. After a 15-min acclimation period the inlet and outlet of the chamber were closed and the pressure changes in the box, caused by the warming and wetting of the gas inspired by the rat and the cooling and drying of the expired gas, were recorded using a high-gain differential pressure transducer. A calibration volume of 0.2 ml of air was regularly introduced into the chamber during the recordings. The recordings were made for 20-30 seconds. Subsequently, the inlet and outlet were opened, and the gas supply was changed to a mixture of 5% CO2 and 21% O2 in N2 (100% humidified) and the rat was allowed to breathe the gas mixture for 5 min to reach a steady-state ventilatory condition. The recordings of changes in pressure were repeated with the chamber closed. Tidal volumes were calculated from the pressure changes using the equation derived by J. E. Drorbaugh and W. O. Fenn, Pediatrics 16, 81-87 (1955). Respiratory frequencies were also determined from the number of respiratory cycles in the recordings and minute ventilations were calculated (tidal volume x frequency).
Compounds were administered at a low dose (3×ED50 determined in the analgesic test) and at a high dose (30×ED50).

[2] = 2 h after i.th. administration, dose 7.5 μg (32×ED50); cited from earlier work
[3] = test system: μ receptors; conditions: GPI; cited from earlier work
[4] = In vivo disposition in pregnant sheep (fetal plasma, placental transfer); conditions: i.v. infusion to pregnant sheep
Experimental: The in vivo disposition after i.v. administration to pregnant sheep was examined by using procedures described in the literature (H. H. Szeto et al. J. Pharmacol. Exp. Ther. 284. 61-65 (1998)). Chronic indwelling catheters were surgically placed in four pregnant ewes (gestional age, 115-120 days; term ˜145 days) as described by H. H. Szeto et al., Am. J. Physiol. 258, R1453-R1458 (1990). […] The compounds according to the invention were administered as a constant-rate intravenous infusion (0.6 mg/kg/h and 0.06 mg/kg/h, respectively, for 4 h) to the sheep, and blood samples were collected at 0, 1, 2, 3, 3.5, 4, 4.25, 4.5, 5, 6, 7, 12 and 24 h. Blood samples were collected form the fetus at 0, 3, 3.5, 4, 5 and 6 h. All blood samples were collected into chilled borosilicate glass tubes containing EDTA and centrifuged, and the plasma was stored in glass containers with Teflon-lined caps and frozen at −80° C.
The compounds were quantified by using reversed-phase HPLC and MS detection, as described by Grigoriants et al., J. Chromatogr. B, Biomedical Applications 695, 287-298 (1997). […] The filtered plasma sample was chromatographed on an RP-analytical column (Delta Pak, 5 μm, C18, 100 Å, 150×3.9 mm; Waters, Milford, Mass.) at a flow rate of 1.5 ml/min, and UV absorption was monitored at 200 nm. […] Continuous flow-LSIMS was used to quantify DALDA. […]

[5] = Hemodynamic and metabolic effects in the pregnant sheep model; format: in vivo; conditions: i.v. infusion 0.6 mg/kg/h and 0.06 mg/kg/h, respectively
Experimental: Using the same instrumented pregnant sheep model described above, DALDA and its analogs were administered by i.v. infusion at a dose of 0.6 mg/kg/h and 0.06 mg/kg/h, respectively. No effect on maternal blood pressure, heart rate, blood gases and plasma glucose were observed. Similarly, neither peptide had any effect on fetal blood pressure, heart rate, blood gases and plasma glucose.

[6] = molecular target: T1, μ receptor (Rattus norvegicus, UniProt P33535); conditions: rat brain membranes; cited from earlier work
T1 construct: from tissue; host or cells: rat brain (cerebellum removed) membranes
T1 sequence (P33535 whole entry): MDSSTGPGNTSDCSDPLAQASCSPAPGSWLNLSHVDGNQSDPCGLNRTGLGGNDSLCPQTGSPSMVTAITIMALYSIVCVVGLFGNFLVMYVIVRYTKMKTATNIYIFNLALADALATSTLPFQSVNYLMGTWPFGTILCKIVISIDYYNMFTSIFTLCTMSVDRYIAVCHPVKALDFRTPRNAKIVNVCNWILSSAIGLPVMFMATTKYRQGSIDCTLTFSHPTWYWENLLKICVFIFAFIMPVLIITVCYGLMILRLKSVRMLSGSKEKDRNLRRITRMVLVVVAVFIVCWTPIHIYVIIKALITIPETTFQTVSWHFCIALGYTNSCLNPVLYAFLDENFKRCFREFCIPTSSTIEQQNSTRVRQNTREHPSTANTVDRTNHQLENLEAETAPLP

SMILES: Cc1cc(O)cc(C)c1C[C@H](N)C(=O)N[C@H](CCCNC(=N)N)C(=O)N[C@@H](Cc1ccccc1)C(=O)N[C@@H](CCCCN)C(N)=O [Example 1, H-Dmt-D-Arg-Phe-Lys-NH2]
- decrease of minute ventilation compared to saline control ([1]; low dose (3×ED50) and high dose (30×ED50)): Neither dose of H-Dmt-D-Arg-Phe-Lys-NH2 significantly decreased minute ventilation

SMILES: CN1CC[C@]23c4c5ccc(O)c4O[C@H]2[C@@H](O)C=C[C@H]3[C@H]1C5 [morphine]
- decrease of minute ventilation ([1]; high dose (30×ED50)): 26%

SMILES: NCCCC[C@H](NC(=O)[C@H](Cc1ccccc1)NC(=O)[C@@H](CCCN=C(N)N)NC(=O)[C@@H](N)Cc1ccc(O)cc1)C(N)=O [DALDA, H-Tyr-D-Arg-Phe-Lys-NH2]
- delayed respiratory depression [2]: did produce delayed respiratory depression
- decrease of minute ventilation ([1]; high dose (30×ED50)): 30%
- decrease of minute ventilation ([1]; low dose (3×ED50)): 26%
- μ agonist potency [3]: considerable μ agonist potency
- crossing of the placental barrier [4]: do not cross the placental barrier to a significant extent
- effect on maternal blood pressure, heart rate, blood gases and plasma glucose [5]: No effect
- μ receptor affinity [6]: high μ receptor affinity
- μ receptor selectivity [6]: excellent μ receptor selectivity
